Activity calls are given as the source filed them. How the calls were made is not given here.
Test system: CCRIS mutagenicity, Ames/micronucleus/aberration tests
Test: CCRIS mutagenicity studies
[1] = Test System: AMES SALMONELLA TYPHIMURIUM, Strain/Indicator: TA98, Metabolic Activation: NONE, Method: PREINCUBATION
[2] = Test System: AMES SALMONELLA TYPHIMURIUM, Strain/Indicator: TA98, Metabolic Activation: RAT, LIVER, S-9, KANECHLOR 500, Method: PREINCUBATION
[3] = Test System: AMES SALMONELLA TYPHIMURIUM, Strain/Indicator: TA100, Metabolic Activation: NONE, Method: PREINCUBATION
[4] = Test System: AMES SALMONELLA TYPHIMURIUM, Strain/Indicator: TA100, Metabolic Activation: RAT, LIVER, S-9, KANECHLOR 500, Method: PREINCUBATION
[5] = Test System: AMES SALMONELLA TYPHIMURIUM, Strain/Indicator: TA98, Metabolic Activation: NONE, Method: STANDARD PLATE
[6] = Test System: AMES SALMONELLA TYPHIMURIUM, Strain/Indicator: TA98, Metabolic Activation: RAT, LIVER, S-9, AROCLOR 1254, Method: STANDARD PLATE
[7] = Test System: AMES SALMONELLA TYPHIMURIUM, Strain/Indicator: TA100, Metabolic Activation: RAT, LIVER, S-9, AROCLOR 1254, Method: STANDARD PLATE

**Q.** Which results are given for Cc1cc(C)cc([N+](=O)[O-])c1?
**A.** mutagenic call [1]: inactive; negative; mutagenic call [2]: inactive; negative; mutagenic call [3]: inactive; negative; mutagenic call [4]: inactive; negative

**Q.** With CC(=O)NC[C@@H](O)COc1cccc2ccccc12 as the compound, how does the mutagenic call (Test System: AMES SALMONELLA TYPHIMURIUM, Strain/Indicator: TA98, Metabolic Activation: RAT, LIVER, S-9, AROCLOR 1254, Method: PREINCUBATION) read?
**A.** The mutagenic call was “inactive; negative”.

**Q.** What about the mutagenic call (Test System: AMES SALMONELLA TYPHIMURIUM, Strain/Indicator: TA100, Metabolic Activation: RAT, LIVER, S-9, AROCLOR 1254, Method: PREINCUBATION) of the same compound?
**A.** Its mutagenic call is “inactive; negative”.

**Q.** And the mutagenic call (Test System: AMES SALMONELLA TYPHIMURIUM, Strain/Indicator: TA102, Metabolic Activation: RAT, LIVER, S-9, AROCLOR 1254, Method: PREINCUBATION)?
**A.** Its mutagenic call is “inactive; negative”.

**Q.** What about the mutagenic call (Test System: AMES SALMONELLA TYPHIMURIUM, Strain/Indicator: TA104, Metabolic Activation: RAT, LIVER, S-9, AROCLOR 1254, Method: PREINCUBATION) of the same compound?
**A.** Its mutagenic call is “inactive; negative”.

**Q.** What about the mutagenic call (Test System: AMES SALMONELLA TYPHIMURIUM, Strain/Indicator: TA1535, Metabolic Activation: RAT, LIVER, S-9, AROCLOR 1254, Method: PREINCUBATION) of the same compound?
**A.** The mutagenic call was “inactive; negative”.

**Q.** What about the mutagenic call (Test System: AMES SALMONELLA TYPHIMURIUM, Strain/Indicator: TA1538, Metabolic Activation: RAT, LIVER, S-9, AROCLOR 1254, Method: PREINCUBATION) of the same compound?
**A.** The mutagenic call was “inactive; negative”.

**Q.** And the mutagenic call (Test System: AMES SALMONELLA TYPHIMURIUM, Strain/Indicator: YG1021, Metabolic Activation: RAT, LIVER, S-9, AROCLOR 1254, Method: PREINCUBATION)?
**A.** Its mutagenic call is “inactive; negative”.

**Q.** And the mutagenic call (Test System: AMES SALMONELLA TYPHIMURIUM, Strain/Indicator: YG1024, Metabolic Activation: RAT, LIVER, S-9, AROCLOR 1254, Method: PREINCUBATION)?
**A.** Its mutagenic call is “inactive; negative”.

**Q.** What about the mutagenic call (Test System: AMES SALMONELLA TYPHIMURIUM, Strain/Indicator: YG1026, Metabolic Activation: RAT, LIVER, S-9, AROCLOR 1254, Method: PREINCUBATION) of the same compound?
**A.** The mutagenic call was “inactive; negative”.

**Q.** What about the mutagenic call (Test System: AMES SALMONELLA TYPHIMURIUM, Strain/Indicator: YG1029, Metabolic Activation: RAT, LIVER, S-9, AROCLOR 1254, Method: PREINCUBATION) of the same compound?
**A.** Its mutagenic call is “inactive; negative”.

**Q.** What about the mutagenic call (Test System: AMES SALMONELLA TYPHIMURIUM, Strain/Indicator: YG1041, Metabolic Activation: RAT, LIVER, S-9, AROCLOR 1254, Method: PREINCUBATION) of the same compound?
**A.** The mutagenic call was “inactive; negative”.

**Q.** What about the mutagenic call (Test System: AMES SALMONELLA TYPHIMURIUM, Strain/Indicator: YG1042, Metabolic Activation: RAT, LIVER, S-9, AROCLOR 1254, Method: PREINCUBATION) of the same compound?
**A.** The mutagenic call was “inactive; negative”.

**Q.** What about the mutagenic call (Test System: AMES SALMONELLA TYPHIMURIUM, Strain/Indicator: YG3003, Metabolic Activation: RAT, LIVER, S-9, AROCLOR 1254, Method: PREINCUBATION) of the same compound?
**A.** Its mutagenic call is “inactive; negative”.

**Q.** What does the source list for CC(C)Nc1nc(N)nc(Cl)n1?
**A.** mutagenic call (Test System: AMES SALMONELLA TYPHIMURIUM, Strain/Indicator: TA97, Metabolic Activation: NONE, Method: STANDARD PLATE): inactive; negative; mutagenic call [5]: inactive; negative; mutagenic call (Test System: AMES SALMONELLA TYPHIMURIUM, Strain/Indicator: TA100, Metabolic Activation: NONE, Method: STANDARD PLATE): inactive; negative

**Q.** Which mutagenic call (End Point: IN VITRO CHROMOSOMAL ABERRATIONS, Test System: CHL CELLS, Metabolic Activation: RAT, LIVER, S-9, SODIUM PHENOBARBITAL AND 5,6-BENZOFLAVONE) does the source give for Nc1ccc([N+](=O)[O-])cc1Cl here?
**A.** The mutagenic call was “active; positive (structural changes)”.

**Q.** And the mutagenic call (End Point: IN VITRO MICRONUCLEUS, Test System: CHL/IU CELLS, Metabolic Activation: NONE)?
**A.** Its mutagenic call is “inactive; negative”.

**Q.** And the mutagenic call [1]?
**A.** The mutagenic call was “active; positive”.

**Q.** What about the mutagenic call [2] of the same compound?
**A.** Its mutagenic call is “active; positive”.

**Q.** And the mutagenic call [3]?
**A.** Its mutagenic call is “inactive; negative”.

**Q.** And the mutagenic call [4]?
**A.** The mutagenic call was “inactive; negative”.

**Q.** What about the mutagenic call (Test System: UDS RODENT HEPATOCYTES, Strain/Indicator: THY INCORP (NON-S-PHASE), Metabolic Activation: NONE, Method: AUTORADIOGRAPHY) of the same compound?
**A.** The mutagenic call was “inactive; negative”.

**Q.** How did the mutagenic call [6] turn out when O=Cc1ccc2ccc3cccc4ccc1c2c34 was run?
**A.** The mutagenic call was “active; positive”.

**Q.** And the mutagenic call [7]?
**A.** The mutagenic call was “active; positive”.

**Q.** How did the mutagenic call [5] turn out when CCOC(=O)NNc1nncc2ccccc12 was run?
**A.** The mutagenic call was “inactive; negative”.

**Q.** What about the mutagenic call [6] of the same compound?
**A.** The mutagenic call was “inactive; negative”.

**Q.** What about the mutagenic call [7] of the same compound?
**A.** Its mutagenic call is “inactive; negative”.

**Q.** And the mutagenic call (Test System: AMES SALMONELLA TYPHIMURIUM, Strain/Indicator: TA100, Metabolic Activation: RAT, LIVER, S-9, PHENOBARBITAL, Method: STANDARD PLATE)?
**A.** Its mutagenic call is “active; positive”.

**Q.** And the mutagenic call (Test System: AMES SALMONELLA TYPHIMURIUM, Strain/Indicator: TA1535, Metabolic Activation: NONE, Method: STANDARD PLATE)?
**A.** The mutagenic call was “inactive; negative”.

**Q.** And the mutagenic call (Test System: AMES SALMONELLA TYPHIMURIUM, Strain/Indicator: TA1535, Metabolic Activation: RAT, LIVER, S-9, AROCLOR 1254, Method: STANDARD PLATE)?
**A.** Its mutagenic call is “inactive; negative”.

**Q.** What about the mutagenic call (Test System: AMES SALMONELLA TYPHIMURIUM, Strain/Indicator: TA1537, Metabolic Activation: NONE, Method: STANDARD PLATE) of the same compound?
**A.** The mutagenic call was “inactive; negative”.

**Q.** What about the mutagenic call (Test System: AMES SALMONELLA TYPHIMURIUM, Strain/Indicator: TA1537, Metabolic Activation: RAT, LIVER, S-9, AROCLOR 1254, Method: STANDARD PLATE) of the same compound?
**A.** Its mutagenic call is “inactive; negative”.

**Q.** What about the mutagenic call (Test System: AMES SALMONELLA TYPHIMURIUM, Strain/Indicator: TA1538, Metabolic Activation: NONE, Method: STANDARD PLATE) of the same compound?
**A.** Its mutagenic call is “inactive; negative”.

**Q.** And the mutagenic call (Test System: AMES SALMONELLA TYPHIMURIUM, Strain/Indicator: TA1538, Metabolic Activation: RAT, LIVER, S-9, AROCLOR 1254, Method: STANDARD PLATE)?
**A.** Its mutagenic call is “inactive; negative”.

**Q.** And the mutagenic call (Test System: UDS RAT HEPATOCYTES, Strain/Indicator: THY INCORP, Metabolic Activation: NONE, Method: AUTORADIOGRAPHY)?
**A.** Its mutagenic call is “inactive; negative”.

**Q.** How did the mutagenic call (End Point: In vitro chromosomal aberrations, Test System: Human lymphocytes, Metabolic Activation: None) turn out when CCNC(=O)NC(=O)/C(C#N)=N/OC was run?
**A.** Its mutagenic call is “active; positive (structural changes)”.

**Q.** And the mutagenic call (End Point: In vitro chromosomal aberrations, Test System: Human lymphocytes, Metabolic Activation: S-9 (DPR evaluator did not provide additional details))?
**A.** The mutagenic call was “active; positive (structural changes)”.

**Q.** What about the mutagenic call (End Point: In vivo micronucleus, Test System: Bone marrow polychromatic erythrocytes, Species: Mouse, Strain/Sex: Female, Route: Oral (gavage)) of the same compound?
**A.** The mutagenic call was “inactive; negative, significant toxicity (m and f) and early deaths (f only) as high dose”.

**Q.** What about the mutagenic call (End Point: In vivo micronucleus, Test System: Bone marrow polychromatic erythrocytes, Species: Mouse, Strain/Sex: Male, Route: Oral (gavage)) of the same compound?
**A.** The mutagenic call was “inactive; negative, significant toxicity (m and f) and early deaths (f only) as high dose”.

**Q.** What about the mutagenic call (Test System: Ames Salmonella typhimurium, Strain/Indicator: TA97, Metabolic Activation: None, Method: Plate incorporation) of the same compound?
**A.** The mutagenic call was “inactive; negative, testing into the cytotoxic range”.

**Q.** And the mutagenic call (Test System: Ames Salmonella typhimurium, Strain/Indicator: TA97, Metabolic Activation: S-9 (DPR evaluator did not provide additional information), Method: Plate incorporation)?
**A.** The mutagenic call was “inactive; negative, testing into the cytotoxic range”.

**Q.** And the mutagenic call (Test System: Ames Salmonella typhimurium, Strain/Indicator: TA98, Metabolic Activation: None, Method: Plate incorporation)?
**A.** Its mutagenic call is “inactive; negative, testing into the cytotoxic range”.

**Q.** What about the mutagenic call (Test System: Ames Salmonella typhimurium, Strain/Indicator: TA98, Metabolic Activation: S-9 (DPR evaluator did not provide additional information), Method: Plate incorporation) of the same compound?
**A.** The mutagenic call was “inactive; negative, testing into the cytotoxic range”.

**Q.** And the mutagenic call (Test System: Ames Salmonella typhimurium, Strain/Indicator: TA100, Metabolic Activation: None, Method: Plate incorporation)?
**A.** The mutagenic call was “inactive; negative, testing into the cytotoxic range”.

**Q.** And the mutagenic call (Test System: Ames Salmonella typhimurium, Strain/Indicator: TA100, Metabolic Activation: S-9 (DPR evaluator did not provide additional information), Method: Plate incorporation)?
**A.** Its mutagenic call is “inactive; negative, testing into the cytotoxic range”.

**Q.** What about the mutagenic call (Test System: Ames Salmonella typhimurium, Strain/Indicator: TA1535, Metabolic Activation: None, Method: Plate incorporation) of the same compound?
**A.** The mutagenic call was “inactive; negative, testing into the cytotoxic range”.

**Q.** And the mutagenic call (Test System: Ames Salmonella typhimurium, Strain/Indicator: TA1535, Metabolic Activation: S-9 (DPR evaluator did not provide additional information), Method: Plate incorporation)?
**A.** The mutagenic call was “inactive; negative, testing into the cytotoxic range”.

**Q.** And the mutagenic call (Test System: Chinese hamster ovary cells, Strain/Indicator: CHO Cells (HPRT) /6-Thioguanine, Metabolic Activation: None, Method: Preincubation)?
**A.** Its mutagenic call is “inactive; negative”.

**Q.** And the mutagenic call (Test System: Chinese hamster ovary cells, Strain/Indicator: CHO Cells (HPRT)/6-Thioguanine, Metabolic Activation: S-9 (DPR evaluator did not provide additional information), Method: Preincubation)?
**A.** The mutagenic call was “inactive; negative”.

**Q.** And the mutagenic call (Test System: Male rat spermatocytes, Strain/Indicator: Thymidine incorporation, Metabolic Activation: None, Method: Autoradiography)?
**A.** The mutagenic call was “inactive; negative, mortality and clinical signs of toxicity observed”.

**Q.** What about the mutagenic call (Test System: UDS Male rat hepatocytes, Strain/Indicator: Thymidine incorporation, Metabolic Activation: None, Method: Autoradiography) of the same compound?
**A.** Its mutagenic call is “inactive; negative, mortality and clinical signs of toxicity observed”.

**Q.** And the mutagenic call (Test System: UDS Rat hepatocytes, Strain/Indicator: Thymidine incorporation, Metabolic Activation: None, Method: Autoradiography)?
**A.** Its mutagenic call is “active; positive, statistically significant but no linear dose response”.
